Source: ChEMBL document CHEMBL1138876, “An introduction of a pyridine group into the structure of prolyl oligopeptidase inhibitors” (Bioorg Med Chem Lett, 2006)
Values after ≈ are worked out from the molar mass of the structure shown.

Columns and labels:
[1] = Partition co-efficient, log P by shake-flask method; type: physicochemical; conditions: octanol/water
[2] = Inhibition of POP in pig brain; set-up: species or system Sus scrofa
[3] = Solubility in phosphate buffer at pH 7.4; type: physicochemical
[4] = Partition co-efficient, log P by pH metric titration; type: physicochemical; conditions: octanol/water
[5] = Dissociation constant, pKa of the compound; type: physicochemical

Row | Compound | logP [1] | IC50 [2] | solubility [3] | logP [4] | pKa [5]
1 | O=C([C@@H]1CCCN1C(=O)Cc1cccnc1)N1CCCC1 |  | 56 nM |  | -0.2 | 
2 | O=C([C@@H]1CCCN1C(=O)c1cccnc1)N1CCCC1 |  | 44 nM |  | -0.3 | 
3 | O=C(NCc1ccccn1)C1=CCCC1C(=O)N1CCCC1 (stereo not drawn) |  | 24 nM |  | 0.3 | 4.4
4 | O=C(NCCc1cccnc1)C1=CCCC1C(=O)N1CCCC1 (stereo not drawn) |  | 2.2 nM |  | 0.6 | 4.4
5 | O=C(NCCc1ccccn1)C1=CCCC1C(=O)N1CCCC1 (stereo not drawn) |  | 5.2 nM |  | 0.6 | 4.4
6 | O=C(NCc1cccnc1)C1=CCCC1C(=O)N1CCCC1 (stereo not drawn) |  | 9.7 nM | > 6 mg/mL | 0.4 | 4.4
7 | O=C(NCc1ccncc1)C1=CCCC1C(=O)N1CCCC1 (stereo not drawn) |  | 19 nM |  | 0.4 | 4.4
8 | O=C(NCCc1ccncc1)C1=CCCC1C(=O)N1CCCC1 (stereo not drawn) |  | 4.8 nM |  | 0.5 | 4.4

The remaining lines, values ahead:

Row | logP [1] | IC50 [2] | solubility [3] | logP [4] | pKa [5] | Compound
9 | 1.6 | 9 nM | 3 mg/mL (≈ 10.1 mM) |  |  | O=C(NCc1ccccc1)C1=CCCC1C(=O)N1CCCC1 (stereo not drawn)
10 |  | 13 nM |  | 1.8 |  | CC(C)(C)[C@H]1CC[C@@H](C(=O)N2CCCC2)N1C(=O)CCc1cccnc1
11 |  | 2.1 nM | > 6 mg/mL | 2 |  | CC(C)(C)[C@H]1CC[C@@H](C(=O)N2CCCC2)N1C(=O)CCCc1cccnc1
12 | 1.9 | 1.5 nM |  |  |  | O=C(NCCc1ccccc1)C1=CCCC1C(=O)N1CCCC1 (stereo not drawn)
13 |  |  | > 6 mg/mL |  |  | O=C([C@@H]1CCCN1C(=O)CCCc1ccccc1)N1CCCC1
14 | 3.3 |  | 0.9 mg/mL (≈ 2.43 mM) |  |  | CC(C)(C)[C@H]1CC[C@@H](C(=O)N2CCCC2)N1C(=O)CCCc1ccccc1
15 |  | 30 nM |  | 0.3 |  | O=C([C@@H]1CCCN1C(=O)CCc1cccnc1)N1CCCC1
